Test in all cases: growth of human tumour cells (NCI), 48 h
The test system of assay [1] is SF-268.
Assay [2] deals with M14.
The test system of assay [3] is SNB-75.
Assay [4] concerns CAKI-1.
Assay [5] relates to NCI/ADR-RES.
Assay [6] concerns LOX IMVI.
The test system of assay [7] is ACHN.
In assay [8] the test system is SK-MEL-28.
Assay [9] relates to OVCAR-4.
In assay [10] the test system is SK-OV-3.
For assay [11], the system named is SK-MEL-2.
The subject of assay [12] is KM12.
The test system of assay [13] is OVCAR-8.
Assay [14] concerns A498.
Assay [15] deals with HOP-92.
Assay [16] deals with SF-295.
The test system of assay [17] is MDA-MB-435.
Assay [18] relates to OVCAR-5.
Assay [19] concerns UO-31.

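Five compound concentrations were applied to cells in 96-well plates for 48 hours; endpoints were derived by simple linear interpolation of the resulting dose-response curve. GI50: concentration for 50% inhibition of growth.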 Calls of active or inactive are those of the source. Cut-off read from the data, not from the text of the source: active = GI50 up to about 1.1 µM and inactive = higher.

Consider eleven molecules from ChEMBL document CHEMBL1201862, “PubChem BioAssay data set” (2004).

With `O=C1C=C(C2=C(C3=CC(=O)c4ccccc4C3=O)C(=O)c3ccccc3C2=O)C(=O)c2ccccc21`, the GI50 in assay [1] was 12.6 µM (inactive); in assay [2] it was 8.87 µM (inactive); in assay [3], 9.46 µM (inactive); in assay [4], 4.7 µM (inactive); in assay [5] it was 11.1 µM (inactive); in [6], 3.36 µM (inactive). In addition, the GI50 was 17.9 µM (inactive) in assay [7]; 14 µM (inactive) in assay [8]; 6.03 µM (inactive) in assay [9]; 20.9 µM (inactive) in [10]; 17.2 µM (inactive) in assay [11]; 7 µM (inactive) in assay [12]. Further, the GI50 in [13] is 5.62 µM (inactive); in assay [14] it was 16.9 µM (inactive); in assay [15] it was 2.45 µM (inactive); in [16] it was 16.1 µM (inactive); in assay [17], 2.47 µM (inactive); in [18] it was 11.8 µM (inactive). The GI50 in [19] was 2.85 µM (inactive).

On to `CCOc1cc2c(cc1O)C=C[C@@H]1[C@@H]2CC[C@]2(C)[C@@H](O)CC[C@@H]12`, for which the GI50 in assay [1] was 9.06 µM (inactive); in assay [2], 2.8 µM (inactive); in [3], 3.3 µM (inactive); in assay [4], 5.28 µM (inactive); in assay [5] it was 1.37 µM (inactive); in assay [6], 3.87 µM (inactive). For the same molecule, the GI50 is 11.6 µM (inactive) in assay [7]; 22.3 µM (inactive) in assay [8]; 24.9 µM (inactive) in assay [9]; 3.34 µM (inactive) in assay [10]; 4.38 µM (inactive) in [11]; 5.3 µM (inactive) in [12]. Moreover, the GI50 in [13] is 4.29 µM (inactive); in assay [14] it was 7.11 µM (inactive); in assay [15], 29.9 µM (inactive); in assay [16], 1.91 µM (inactive); in assay [17], 0.334 µM (active); in assay [18] it was 27.6 µM (inactive). The GI50 in assay [19] is 6.08 µM (inactive).

Regarding `COC(=O)C1=NN2c3ccccc3C(=O)OCCC2C1` (configuration not stated), the GI50 in assay [1], in assay [3], in assay [4], in assay [5], in assay [6] and in assay [7] was > 100 µM (inactive) in each case. The GI50 in assay [8], in assay [9], in [10], in assay [11], in assay [12] and in [13] was > 100 µM (inactive) in each case. Further, the GI50 is > 100 µM (inactive) in [14]; 46.5 µM (inactive) in [15]; > 100 µM (inactive) in [16]; > 100 µM (inactive) in assay [17]; > 100 µM (inactive) in assay [18]; > 100 µM (inactive) in assay [19].

Consider `O=C(/C=C/c1ccc(C(F)(F)F)cc1)c1c([O-])on[n+]1-c1ccccc1`, for which the GI50 was 2.3 µM (inactive) in assay [2]; 2.07 µM (inactive) in [3]; 0.288 µM (active) in assay [4]; 1.78 µM (inactive) in assay [5]; 0.403 µM (active) in assay [6]; 1.51 µM (inactive) in [7]. Also, the GI50 in assay [8] is 1.61 µM (inactive); in [9] it was 5.33 µM (inactive); in [10] it was 14.3 µM (inactive); in [11], 2.81 µM (inactive); in assay [12], 1.83 µM (inactive); in assay [13], 1.92 µM (inactive). Also, the GI50 in assay [14] is 7.05 µM (inactive); in assay [15] it was 1.6 µM (inactive); in assay [16], 3.6 µM (inactive); in [17] it was 1.86 µM (inactive); in assay [18], 3.12 µM (inactive); in assay [19], 1.91 µM (inactive).

`Cc1nnc(SCc2nc(C#N)c(C#N)nc2CSc2nnc(C)s2)s1`: the GI50 in assay [1] was 17.9 µM (inactive); in [2], 16.6 µM (inactive); in assay [3], 19.8 µM (inactive); in assay [4], 5.74 µM (inactive); in assay [5], 30.6 µM (inactive); in [6], 8.89 µM (inactive). In addition, the GI50 in [7] is 8.53 µM (inactive); in assay [8], 26.9 µM (inactive); in assay [9] it was 15.2 µM (inactive); in [10], 33.3 µM (inactive); in assay [11] it was 25.2 µM (inactive); in assay [12], 19.3 µM (inactive). The GI50 in assay [13] was 12.9 µM (inactive); in assay [14] it was 27.4 µM (inactive); in assay [15], 12.9 µM (inactive); in [16], 39.4 µM (inactive); in assay [17], 8.63 µM (inactive); in [18] it was 18.1 µM (inactive). Also, in [19], the GI50 was 8.49 µM (inactive).

For `O=C1NC(Nc2ccccc2Cl)=N/C1=C\c1c(Cl)cccc1Cl`, the GI50 is 31.1 µM (inactive) in assay [1]; 40.9 µM (inactive) in [2]; 24.7 µM (inactive) in [3]; 27.8 µM (inactive) in assay [4]; 23.2 µM (inactive) in [5]; 29.4 µM (inactive) in assay [6]. Also, the GI50 is 50.5 µM (inactive) in assay [7]; 51.8 µM (inactive) in assay [8]; 11.6 µM (inactive) in assay [9]; 59.8 µM (inactive) in assay [10]; 28.8 µM (inactive) in assay [11]; 23.7 µM (inactive) in [12]. The GI50 in assay [13] is 31.6 µM (inactive); in [14], 34.5 µM (inactive); in assay [15], 19.9 µM (inactive); in assay [16], 26.5 µM (inactive); in [17], 11 µM (inactive); in assay [18] it was 30 µM (inactive). Besides, the GI50 in assay [19] is 20.7 µM (inactive).

On to `Nc1ncc2c(n1)-c1ccccc1OC2N1CCCCC1` (configuration not stated), for which the GI50 in [1], in [2], in [3], in [4], in assay [5] and in assay [6] was > 100 µM (inactive) in each case. Moreover, the GI50 in [7], in assay [9], in assay [10], in assay [11], in [12] and in assay [13] was > 100 µM (inactive) throughout. In addition, the GI50 in assay [14], in assay [15], in assay [16], in [17], in assay [18] and in assay [19] was > 100 µM (inactive) in each case.

In the case of `COP(=O)(OC)C12CCOCCN1c1ccccc1C2=O` (configuration not stated), the GI50 in assay [1], in assay [2], in [3], in [4], in assay [5] and in assay [7] was > 100 µM (inactive) in each case. Further, the GI50 in [8], in assay [9], in assay [10], in [11], in [12] and in assay [13] was > 100 µM (inactive) in each case. The GI50 in [14], in assay [15], in assay [16], in [17], in assay [18] and in assay [19] was > 100 µM (inactive) each time.

For the molecule `OC(c1ccc(F)cc1)C(F)(F)c1nc2ccccc2o1` (configuration not stated), the GI50 in assay [1] is 38.9 µM (inactive); in assay [2] it was > 100 µM (inactive); in assay [3] it was 21.6 µM (inactive); in assay [4], 87.5 µM (inactive); in assay [5] it was 51.4 µM (inactive); in [6] it was > 100 µM (inactive). Also, the GI50 was > 100 µM (inactive) in [7]; > 100 µM (inactive) in assay [8]; > 100 µM (inactive) in [9]; > 100 µM (inactive) in assay [10]; > 100 µM (inactive) in [11]; 44.3 µM (inactive) in [12]. Moreover, the GI50 in assay [13] is 51.2 µM (inactive); in assay [14], 34.4 µM (inactive); in assay [15], 21.7 µM (inactive); in assay [16] it was > 100 µM (inactive); in assay [17], > 100 µM (inactive); in assay [19], > 100 µM (inactive).

For the molecule `CC(=O)Nc1cc(Cl)cc(Cl)c1O`, the GI50 is > 100 µM (inactive) in assay [1]; > 100 µM (inactive) in [2]; 97.1 µM (inactive) in [3]; > 100 µM (inactive) in assay [4]; > 100 µM (inactive) in assay [5]; > 100 µM (inactive) in assay [7]. In addition, the GI50 in assay [8], in [9], in assay [10], in assay [11], in [12] and in assay [13] was > 100 µM (inactive) throughout. Also, the GI50 in [14], in assay [15], in assay [16], in assay [17], in [18] and in [19] was > 100 µM (inactive) throughout.

With `CCN(CC)C(=S)N/N=C1\C(=O)Nc2ccccc21`, the GI50 in assay [1] was > 100 µM (inactive); in [2] it was 0.586 µM (active); in [3] it was 1.31 µM (inactive); in assay [4] it was 0.895 µM (active); in [5], 0.152 µM (active); in [6] it was 0.495 µM (active). Moreover, the GI50 in assay [7] is 0.42 µM (active); in assay [8], > 100 µM (inactive); in assay [9], 0.771 µM (active); in assay [10], 3.05 µM (inactive); in assay [11], 2.65 µM (inactive); in [12], 0.451 µM (active). The GI50 was 0.813 µM (active) in assay [13]; 1.25 µM (inactive) in [14]; 2.79 µM (inactive) in assay [15]; 0.45 µM (active) in assay [16]; 2.51 µM (inactive) in [17]; 6.18 µM (inactive) in assay [18].
